Experimental data as given in patent publication US20240201204A1, “Biomarker and Druggable Target of Neurodegeneration” (University Hospitals Cleveland Medical Center, priority 2020, published 2024).

Test system: clinically-diagnosed TBI
Test: Pharmacoepidemiologic cohort analysis (MarketScan Medicare Supplemental database), incidence of TBI
Assay type: in vivo, human
Conditions: vs. PS-matched aspirin cohort, Cox regression model, 6 years of follow-up
Source text: Because ac-tau has been generally reported in the brains of subjects with AD, we evaluated the relationship between salsalate or diflunisal use and incidence of clinically-diagnosed TBI or AD by analyzing 7.23 million U.S. commercially-insured individuals (MarketScan Medicare Supplemental database). We conducted two cohort analyses to evaluate the predicted association, based on individual level of longitudinal patient data and pharmacoepidemiologic methods, as previously established (Cheng et al., 2018). Thus, our two cohorts included: (1) salsalate vs. a matched aspirin population and (2) diflunisal vs. a matched aspirin population (Table 2). For each comparison, we estimated the un-stratified Kaplan-Meier curves and conducted propensity score (PS) stratified (n strata=10) log-rank tests and a Cox regression model after adjusting age, race, sex, and disease comorbidities (including diabetes, hypertension, and coronary artery disease) using a propensity score-matching method (Methods).
Study cohorts. The IBM® MarketScan® Medicare Supplemental Database is one of the first in the U.S. to profile the healthcare experience of retirees with Medicare supplemental insurance paid by employers. The MarketScan Medicare Supplemental Database provides detailed cost, use and outcomes data for healthcare services performed in both inpatient and outpatient settings. […]

Structure (SMILES): O=C(Oc1ccccc1C(=O)O)c1ccccc1O [salsalate]
- hazard ratio [HR], clinically-diagnosed TBI: 0.70
